Reference: ChEMBL document CHEMBL1201862, “PubChem BioAssay data set” (2004)
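Dose response: 5 concentrations. Exposure: 48 h. Format: 96-well plates. Endpoint: linear interpolation; highest concentration if not reached. Here, GI50 denotes the concentration required for 50% inhibition of growth.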 Activity calls are given as the source filed them. Rule as the data show it: active = GI50 up to about 1.1 µM and inactive = higher. Residues, ends and D or L forms follow the SMILES beside them.

Experiments:
Assay in all cases: growth of human tumour cells (NCI), 48 h
SF-539 = test system: SF-539
OVCAR-8 = test system: OVCAR-8
Malme-3M = test system: Malme-3M
RPMI-8226 = test system: RPMI-8226
RXF 393 = test system: RXF 393
NCI-H226 = test system: NCI-H226
DU-145 = test system: DU-145
K562 = test system: K562
COLO 205 = test system: COLO 205
HL-60 = test system: HL-60
SK-MEL-5 = test system: SK-MEL-5
SR = test system: SR
SW-620 = test system: SW-620
UO-31 = test system: UO-31
HT-29 = test system: HT-29
NCI-H460 = test system: NCI-H460
SF-268 = test system: SF-268
MDA-MB-231 = test system: MDA-MB-231
MOLT-4 = test system: MOLT-4
NCI-H522 = test system: NCI-H522

Row | SMILES | GI50 (SF-539) | GI50 (OVCAR-8) | GI50 (Malme-3M) | GI50 (RPMI-8226) | GI50 (RXF 393) | GI50 (NCI-H226) | GI50 (DU-145) | GI50 (K562) | GI50 (COLO 205) | GI50 (HL-60) | GI50 (SK-MEL-5) | GI50 (SR) | GI50 (SW-620) | GI50 (UO-31) | GI50 (HT-29) | GI50 (NCI-H460) | GI50 (SF-268) | GI50 (MDA-MB-231) | GI50 (MOLT-4) | GI50 (NCI-H522)
1 | Cn1ncc2c(NCc3ccccc3)ncnc21 | > 100 µM (inactive) | > 100 µM (inactive) | > 100 µM (inactive) | > 100 µM (inactive) | > 100 µM (inactive) | > 100 µM (inactive) | > 100 µM (inactive) | > 100 µM (inactive) | > 100 µM (inactive) | > 100 µM (inactive) | > 100 µM (inactive) | > 100 µM (inactive) | > 100 µM (inactive) | > 100 µM (inactive) | > 100 µM (inactive) | > 100 µM (inactive) | > 100 µM (inactive) | > 100 µM (inactive) | > 100 µM (inactive) | 
2 | c1ccc2c(c1)CCc1c-2n(CCN2CCCCC2)c2ccccc12 | 12.9 µM (inactive) | 17.7 µM (inactive) | 24.7 µM (inactive) | 10.3 µM (inactive) |  | 10.9 µM (inactive) | 39.4 µM (inactive) | 9.75 µM (inactive) | 11.8 µM (inactive) |  | 0.564 µM (active) | 8.81 µM (inactive) | 20.8 µM (inactive) | 11.4 µM (inactive) | 8.2 µM (inactive) | 15.6 µM (inactive) | 21.2 µM (inactive) | 13.2 µM (inactive) | 13.9 µM (inactive) | 13.5 µM (inactive)
3 | CCC[C@@H](O)C[C@@H]1CCC[C@H](C[C@@H](O)CC)N1C | > 100 µM (inactive) | > 100 µM (inactive) |  | > 100 µM (inactive) |  | > 100 µM (inactive) | > 100 µM (inactive) | > 100 µM (inactive) | > 100 µM (inactive) | > 100 µM (inactive) | > 100 µM (inactive) | > 100 µM (inactive) | > 100 µM (inactive) | > 100 µM (inactive) | > 100 µM (inactive) |  | 17.9 µM (inactive) | > 100 µM (inactive) | > 100 µM (inactive) | 11.7 µM (inactive)
4 | O=C(Cn1c(-c2ccccc2)cc2ccccc21)N1CCCC1 |  | > 100 µM (inactive) | > 100 µM (inactive) |  |  | > 100 µM (inactive) | > 100 µM (inactive) |  | > 100 µM (inactive) |  | 63.2 µM (inactive) | > 100 µM (inactive) | > 100 µM (inactive) | > 100 µM (inactive) | > 100 µM (inactive) | > 100 µM (inactive) | > 100 µM (inactive) | > 100 µM (inactive) | > 100 µM (inactive) | > 100 µM (inactive)
5 | O=c1[nH]c(=O)n(COCCO)c2ccc(Br)cc12 | > 100 µM (inactive) | > 100 µM (inactive) |  |  | > 100 µM (inactive) | 25.2 µM (inactive) | > 100 µM (inactive) | > 100 µM (inactive) | > 100 µM (inactive) | > 100 µM (inactive) | > 100 µM (inactive) | 80.4 µM (inactive) | > 100 µM (inactive) | 74.3 µM (inactive) | > 100 µM (inactive) | > 100 µM (inactive) |  | > 100 µM (inactive) | > 100 µM (inactive) | 
6 | COC(=O)c1c(C)cc(OC)c(C/C=C(\C)CCCc2coc(C=C(C)C)c2)c1OC | 49 µM (inactive) | > 100 µM (inactive) |  | 99.5 µM (inactive) |  |  | > 100 µM (inactive) | > 100 µM (inactive) | > 100 µM (inactive) | 21.9 µM (inactive) | > 100 µM (inactive) | 7.6 µM (inactive) | > 100 µM (inactive) | > 100 µM (inactive) | 74.8 µM (inactive) | > 100 µM (inactive) | 1.71 µM (inactive) | > 100 µM (inactive) | 37.4 µM (inactive) | 14.9 µM (inactive)
7 | O=C(Cn1c(C(=O)/C=C/c2ccco2)nc2ccccc21)c1ccc(Cl)cc1 | 44.9 µM (inactive) |  | 3.06 µM (inactive) | 10.1 µM (inactive) | 30.4 µM (inactive) | 52.7 µM (inactive) | 36.1 µM (inactive) | 11.7 µM (inactive) | 19.4 µM (inactive) | 15.5 µM (inactive) | 19.9 µM (inactive) | 3.03 µM (inactive) | 25.4 µM (inactive) | 23.2 µM (inactive) | 26.1 µM (inactive) | 12.3 µM (inactive) | 9.71 µM (inactive) | 20.2 µM (inactive) |  | 
8 | CCOC1OC(COC(=O)C(C)(C)C)C(O)CC1n1cc(C)c(=O)[nH]c1=O (stereo not drawn) | > 100 µM (inactive) | > 100 µM (inactive) | > 100 µM (inactive) | > 100 µM (inactive) | > 100 µM (inactive) | > 100 µM (inactive) | > 100 µM (inactive) | > 100 µM (inactive) | > 100 µM (inactive) |  | > 100 µM (inactive) | > 100 µM (inactive) | > 100 µM (inactive) | > 100 µM (inactive) | > 100 µM (inactive) | > 100 µM (inactive) | > 100 µM (inactive) | > 100 µM (inactive) |  | > 100 µM (inactive)
9 | Cc1nc2ccc(S(=O)(=O)Nc3ccccc3Cl)cc2c(=O)n1NC(=O)CNc1ccccc1Cl | > 100 µM (inactive) | > 100 µM (inactive) | > 100 µM (inactive) | > 100 µM (inactive) |  | > 100 µM (inactive) | > 100 µM (inactive) | > 100 µM (inactive) | > 100 µM (inactive) | > 100 µM (inactive) |  | > 100 µM (inactive) | > 100 µM (inactive) | > 100 µM (inactive) | > 100 µM (inactive) | > 100 µM (inactive) | > 100 µM (inactive) | > 100 µM (inactive) | > 100 µM (inactive) | > 100 µM (inactive)
10 | Cc1ccc(S(=O)(=O)[N-]C2C(=O)c3ccccc3C(=O)C2[n+]2cccc(C(N)=O)c2)cc1 (stereo not drawn) | > 100 µM (inactive) | > 100 µM (inactive) |  | > 100 µM (inactive) | > 100 µM (inactive) | > 100 µM (inactive) | 40.6 µM (inactive) | > 100 µM (inactive) | 24.8 µM (inactive) | > 100 µM (inactive) | > 100 µM (inactive) | > 100 µM (inactive) | > 100 µM (inactive) | > 100 µM (inactive) | > 100 µM (inactive) | > 100 µM (inactive) | > 100 µM (inactive) | 32.6 µM (inactive) | > 100 µM (inactive) | > 100 µM (inactive)
11 | COC(=O)C(Cc1ccccc1)NP(=O)(O)OCC1OC(n2ccc(N)nc2=O)C(O)C1O (stereo not drawn) | > 100 µM (inactive) | > 100 µM (inactive) | > 100 µM (inactive) | > 100 µM (inactive) |  | > 100 µM (inactive) | > 100 µM (inactive) | > 100 µM (inactive) | > 100 µM (inactive) | > 100 µM (inactive) | > 100 µM (inactive) | 66.1 µM (inactive) | > 100 µM (inactive) | > 100 µM (inactive) | > 100 µM (inactive) | > 100 µM (inactive) | > 100 µM (inactive) | > 100 µM (inactive) | 76 µM (inactive) | > 100 µM (inactive)
12 | Cc1nn(-c2ccccc2)c2nc3ccc(Cl)cc3c(-c3ccccc3)c12 |  | > 100 µM (inactive) | > 100 µM (inactive) | > 100 µM (inactive) |  | > 100 µM (inactive) | > 100 µM (inactive) |  | > 100 µM (inactive) |  | > 100 µM (inactive) | > 100 µM (inactive) | > 100 µM (inactive) | > 100 µM (inactive) | > 100 µM (inactive) | > 100 µM (inactive) | > 100 µM (inactive) | > 100 µM (inactive) | > 100 µM (inactive) | > 100 µM (inactive)
13 | COc1cc([C@@H]2c3cc4c(cc3[C@@H](Nc3ccc(Cl)cc3C(=O)c3ccccc3)[C@H]3COC(=O)[C@H]23)OCO4)cc(OC)c1OC | 0.274 µM (active) | 0.359 µM (active) | 0.396 µM (active) | 0.467 µM (active) |  |  | 0.428 µM (active) | 0.358 µM (active) | 0.416 µM (active) | 0.297 µM (active) | 0.298 µM (active) | 0.295 µM (active) | 0.369 µM (active) | 1.19 µM (inactive) | 0.307 µM (active) | 0.277 µM (active) | 0.558 µM (active) | 0.586 µM (active) | 0.384 µM (active) | 0.211 µM (active)
14 | C=C1C(=O)OC2CC3(C)CCCC(C)C3=CC12 (stereo not drawn) | 1.35 µM (inactive) | 12.8 µM (inactive) | 3.9 µM (inactive) |  |  | 13.2 µM (inactive) | 3.67 µM (inactive) | 2.35 µM (inactive) | 1.3 µM (inactive) | 0.469 µM (active) | 1.55 µM (inactive) | 2.14 µM (inactive) | 2.16 µM (inactive) | 3.18 µM (inactive) | 3.3 µM (inactive) | 3.03 µM (inactive) | 6.92 µM (inactive) | 12.1 µM (inactive) | 2.56 µM (inactive) | 1.51 µM (inactive)
15 | CCC(C)C(NC(=O)C1CCCN1)C(=O)NC(C(=O)NCC(=O)NC(CC(N)=O)C(=O)NC(CC(C)C)C(=O)NC(CC(C)C)C(=O)NC(CCCCN)C(N)=O)C(C)C (stereo not drawn) (H-PIVGNLLK-NH2; configuration not given here) | > 75 µM (inactive) | > 75 µM (inactive) | > 75 µM (inactive) | > 75 µM (inactive) |  | > 75 µM (inactive) | > 75 µM (inactive) | > 75 µM (inactive) | > 75 µM (inactive) | 23 µM (inactive) | > 75 µM (inactive) | > 75 µM (inactive) | > 75 µM (inactive) | > 75 µM (inactive) | > 75 µM (inactive) |  | > 75 µM (inactive) | > 75 µM (inactive) | > 75 µM (inactive) | > 75 µM (inactive)
